From PMC4231100, “Cerebral Artery Alpha-1 AR Subtypes: High Altitude Long-Term Acclimatization Responses” (PLoS ONE, 2014)
Where a name gives a salt, the structure may show the parent alone.

How the values were obtained:
α1A-AR = molecular target: T1, α1A-AR (Ovis aries, UniProt A0ACI6NWI5); assay: functional antagonism (KB) of phenylephrine-induced contraction in isolated arteries
T1 construct: gene ADRA1A
T1 sequence (A0ACI6NWI5 1-466): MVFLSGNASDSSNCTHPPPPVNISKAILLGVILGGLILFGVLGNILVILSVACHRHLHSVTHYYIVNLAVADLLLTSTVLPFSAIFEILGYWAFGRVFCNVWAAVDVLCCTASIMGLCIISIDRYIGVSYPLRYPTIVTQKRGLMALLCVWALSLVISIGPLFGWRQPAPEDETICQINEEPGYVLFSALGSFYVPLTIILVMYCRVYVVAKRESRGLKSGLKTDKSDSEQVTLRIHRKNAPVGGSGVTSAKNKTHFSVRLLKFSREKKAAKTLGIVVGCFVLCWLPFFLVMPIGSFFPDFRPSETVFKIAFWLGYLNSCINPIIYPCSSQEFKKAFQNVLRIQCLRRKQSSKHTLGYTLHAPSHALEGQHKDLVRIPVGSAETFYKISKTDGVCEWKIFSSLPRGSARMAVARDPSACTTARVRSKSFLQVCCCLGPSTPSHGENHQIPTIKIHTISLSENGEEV

α1D-AR = molecular target: T2, α1D-AR (Ovis aries, UniProt A0ACI6RHM3); assay: as above
T2 construct: gene ADRA1D
T2 sequence (A0ACI6RHM3 1-564): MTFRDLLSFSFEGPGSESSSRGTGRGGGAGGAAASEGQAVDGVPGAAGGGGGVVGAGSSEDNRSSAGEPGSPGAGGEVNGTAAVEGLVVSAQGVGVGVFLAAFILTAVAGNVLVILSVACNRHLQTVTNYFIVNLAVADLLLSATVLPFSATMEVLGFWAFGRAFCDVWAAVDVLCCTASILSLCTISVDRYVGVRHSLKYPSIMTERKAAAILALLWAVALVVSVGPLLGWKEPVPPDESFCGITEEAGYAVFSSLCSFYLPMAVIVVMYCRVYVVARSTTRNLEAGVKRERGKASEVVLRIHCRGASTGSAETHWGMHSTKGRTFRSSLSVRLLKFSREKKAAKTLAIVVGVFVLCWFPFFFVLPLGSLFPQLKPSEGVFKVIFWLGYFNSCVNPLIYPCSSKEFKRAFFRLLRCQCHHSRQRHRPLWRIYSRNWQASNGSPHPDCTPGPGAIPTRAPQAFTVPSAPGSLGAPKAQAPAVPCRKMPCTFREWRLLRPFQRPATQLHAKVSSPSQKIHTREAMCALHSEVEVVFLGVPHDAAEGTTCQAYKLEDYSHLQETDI

Kb (α1A-AR) [nM] | Kb (α1D-AR) [nM] | SMILES
11 | – | COc1cccc(OC)c1OCCNCC1COc2ccccc2O1 (centres unmarked) [WB, 2-([2,6-Dimethoxyphenoxyethyl]a-minomethyl)-1,4-benzodioxane hydrochloride]
– | 6.7 | COc1ccccc1N1CCN(CCN2C(=O)CC3(CCCC3)CC2=O)CC1 [BMY, 8-(2-[4-(2-Methoxyphenyl)-1-piperazinyl]ethyl)-8-azaspiro(4.5)decane-7,9-dione]
